The assay deals with RSV A2. Put plainly: Screening for RSV inhibition using Viral ToxGlo assay (cytopathic effect inhibition in HEp-2 cells). As to conditions: human respiratory syncytial virus; RSV A2 in HEp-2 cells, MOI 0.5, 72h p.i., cytopathic effect inhibition relative to virus control, Viral ToxGlo luminescence. The class given is cell-based, Respiratory Syncytial Virus (RSV). How it is done: Protocol for Screening Antiviral Compounds for RSV Inhibition and Cytotoxicity Using Viral ToxGlo Assay
HEp-2 cells were maintained in Eagle's minimum essential medium (EMEM) with Earle's BSS adjusted to contain 2 mM L-glutamine, 10% fetal bovine serum, 100 U/ml penicillin and 100 µg/ml streptomycin. For the purposes of the screening assay they were grown to 90% confluency, trypsinized and recovered. The trypsin was neutralised with cell culture media and cells were centrifuged at 150×g for 5 minutes before discarding the supernatant and resuspending cell pellet in assay media (EMEM with Earle's BSS adjusted to contain 2 mM L-glutamine, 2% fetal bovine serum and 100 U/ml penicillin and 100 µg/ml streptomycin). The cells were seeded into white clear-bottomed cell culture plates at a density of 1.5×10^4 cells/well in 50 μl and 4×10^3 cells/well in 25 μl for 96 well plates and 384 well plates respectively. For the media/background control column assay media only was added. Cell plates were placed in a humid chamber and incubated overnight at 37° C./5% CO2. After overnight incubation cells were checked for confluency and healthy appearance.
Test articles were made up at 10× test concentration in a maximum DMSO concentration of 10% (final assay concentration maximal 1% DMSO) and added to the cell plates in volumes of […] for 96 well plates and 5 μl for 384 well plates. For cell control and virus control wells the test article solvent only was added. Virus or assay media for cytotoxicity test wells and media/cell control wells was added immediately after test articles at an MOI of […] for 96 and 384 well plates respectively. Virus suspension was prepared by thawing RSV A2 frozen stocks and diluting to the required concentration of plaque forming units in assay media on ice.
Cell plates were further incubated inside a humid chamber for 72h p.i at 37° C./5% CO2. After the incubation period cells were observed under the microscope to check for characteristic cytopathic effect in virus control wells and healthy cells in the cell control wells. After plates were adjusted to room temperature 20/40 μl Viral ToxGlo (Promega) was added to each well of the 384/96 well cell plates. Plates were incubated at room temperature, protected from light on a plate rocker for 20 minutes before measuring the luminescence on a spectrophotometer (Biotek Synergy HTX).
In general terms: Damage to the host cells serves as the signal in cytopathic effect assays.
As usually defined, the EC50 is the concentration that produces a half-maximal response. Regarding `CC(C)C1(NC(=O)c2cccc(Nc3ccc(C(=O)N=C4NCCN4)cc3C3CC3)c2)CC1` [Compound 7], the EC50 was found to be 1.6 nM. The same measure for `CC1(NC(=O)c2cccc(Nc3ccc(C(=O)N=C4NCCN4)cc3C3CC3)c2)CC1` [Compound 14, 3-cyclopropyl-N-[(2Z)-imidazolidin-2-ylidene]-4-({3-[(1-methylcyclopropyl)carbamoyl]phenyl}amino)benzamide]: 14.4 nM; for `O=C(N=C1NCCN1)c1ccc(Nc2cccc(C(=O)N3CCOCC3)c2Cl)c(C2CCOC2)c1` (centres unmarked) [Compound 15, 4-{[2-chloro-3-(morpholine-4-carbonyl)phenyl]amino}-N-[(2E)-imidazolidin-2-ylidene]-3-(oxolan-3-yl)benzamide]: 14.9 nM. As to `O=C(N=C1NCCN1)c1ccc(Nc2cccc(C(=O)N3CCOCC3)c2Cl)c(C(F)(F)F)c1` [Compound 16, 4-{[2-chloro-3-(morpholine-4-carbonyl)phenyl]amino}-N-[(2E)-imidazolidin-2-ylidene]-3-(trifluoromethyl)benzamide], the EC50 turned out to be 15.6 nM.

On to `CC(C)NC(=O)c1cccc(Nc2ccc(C(=O)/N=C3\NCCN3C)cc2C(C)(C)C)c1` [Compound 17, 3-tert-butyl-N-[(2E)-1-methylimidazolidin-2-ylidene]-4-({3-[(propan-2-yl)carbamoyl]phenyl}amino)benzamide], for which the EC50 amounted to 19.8 nM. The same measure for `CC1(NC(=O)c2cccc(Nc3ccc(C(=O)N=C4NCCN4)cc3C3CCC3)c2)CC1` [Compound 18, 3-cyclobutyl-N-[(2Z)-imidazolidin-2-ylidene]-4-({3-[(1-methylcyclopropyl)carbamoyl]phenyl}amino)benzamide]: 21.2 nM. For `CC(C)NC(=O)c1cccc(Nc2ccc(C(=O)N=C3NCCN3)cc2C(C)(C)C)c1` [Compound 19, 3-tert-butyl-N-[(2E)-imidazolidin-2-ylidene]-4-({3-[(propan-2-yl)carbamoyl]phenyl}amino)benzamide] the value was 22.8 nM; for `CC(C)(C)C(=O)Nc1cccc(Nc2ccc(C(=O)N=C3NCCN3)cc2C(C)(C)C)c1` [Compound 20, 3-tert-butyl-4-{[3-(2,2-dimethylpropanamido)phenyl]amino}-N-[(2Z)-imidazolidin-2-ylidene]benzamide], 23.5 nM; for `CC1(C(=O)Nc2cccc(Nc3ccc(C(=O)N=C4NCCN4)cc3C3CC3)c2)CC1` [Compound 21, 3-cyclopropyl-N-[(2Z)-imidazolidin-2-ylidene]-4-{[3-(1-methylcyclopropaneamido)phenyl]amino}benzamide], 25.8 nM. Turning to `O=C(N=C1NCCN1)c1ccc(Nc2cccc(OCCCC3CCCCC3)c2)c(C2CC2)c1` [Compound 22, 4-{[3-(3-cyclohexylpropoxy)phenyl]amino}-3-cyclopropyl-N-[(2E)-imidazolidin-2-ylidene]benzamide], the EC50 turned out to be 26 nM. For `O=C(N=C1NCCN1)c1ccc(Nc2cccc(OCC3COCCO3)c2Cl)c(C2CC2)c1` (centres unmarked) [Compound 23, 4-({2-chloro-3-[(1,4-dioxan-2-yl)methoxy]phenyl}amino)-3-cyclopropyl-N-[(2E)-imidazolidin-2-ylidene]benzamide] the value was 30.3 nM; for `CN1CCN/C1=N\C(=O)c1ccc(Nc2cccc(C(=O)NC3(C)CC3)c2)c(C(C)(C)C)c1` [Compound 24, 3-tert-butyl-4-({3-[(1-methylcyclopropyl)carbamoyl]phenyl}amino)-N-[(2E)-1-methylimidazolidin-2-ylidene]benzamide], 31.7 nM; for `O=C(N=C1NCCN1)c1ccc(Nc2cccc(C(=O)NC3CC3)c2Cl)c(C2CC2)c1` [Compound 25, 4-{[2-chloro-3-(cyclopropylcarbamoyl)phenyl]amino}-3-cyclopropyl-N-[(2Z)-imidazolidin-2-ylidene]benzamide], 32.2 nM.

Take `CC(C)C(=O)Nc1cccc(Nc2ccc(C(=O)N=C3NCCN3)cc2C2CC2)c1` [Compound 26, 3-cyclopropyl-N-[(2E)-imidazolidin-2-ylidene]-4-{[3-(2-methylpropanamido)phenyl]amino}benzamide]: the EC50 came out at 34.4 nM. Consider `COc1c(Nc2ccc(C(=O)N=C3NCCN3)cc2C2CC2)cccc1C(=O)NCCC(C)C` [Compound 27, 3-cyclopropyl-N-[(2Z)-imidazolidin-2-ylidene]-4-({2-methoxy-3-[(3-methylbutyl)carbamoyl]phenyl}amino)benzamide], for which the EC50 came out at 41.4 nM. For `O=C(N=C1NCCN1)c1ccc(Nc2cccc(C(=O)NC3CCOC3)c2Cl)c(C2CC2)c1` (centres unmarked) [Compound 28, 4-({2-chloro-3-[(oxolan-3-yl)carbamoyl]phenyl}amino)-3-cyclopropyl-N-[(2Z)-imidazolidin-2-ylidene]benzamide] the value was 42.1 nM.

For `C=C(C)c1cc(C(=O)N=C2NCCN2)ccc1Nc1cccc(C(=O)NCCC(C)C)c1` [Compound 29, N-[(2E)-imidazolidin-2-ylidene]-4-({3-[(3-methylbutyl)carbamoyl]phenyl}amino)-3-(prop-1-en-2-yl)benzamide], the EC50 was found to be 42.3 nM. On to `CC(C)(O)c1cc(C(=O)N=C2NCCN2)ccc1Nc1cccc(C(=O)N2CCOCC2)c1C(F)(F)F` [Compound 30, 3-(2-hydroxypropan-2-yl)-N-[(2E)-imidazolidin-2-ylidene]-4-{[3-(morpholine-4-carbonyl)-2-(trifluoromethyl)phenyl]amino}benzamide], for which the EC50 stood at 42.7 nM.

Consider `CCC1(NC(=O)c2cccc(Nc3ccc(C(=O)N=C4NCCN4)cc3C3CC3)c2)CC1` [Compound 31, 3-cyclopropyl-4-({3-[(1-ethylcyclopropyl)carbamoyl]phenyl}amino)-N-[(2Z)-imidazolidin-2-ylidene]benzamide], for which the EC50 was determined as 47.7 nM. As for `CC(C)NC(=O)c1cc(F)cc(Nc2ccc(C(=O)N=C3NCCN3)cc2C2CC2)c1` [Compound 32, 3-cyclopropyl-4-({3-fluoro-5-[(propan-2-yl)carbamoyl]phenyl}amino)-N-[(2Z)-imidazolidin-2-ylidene]benzamide], the EC50 was found to be 49.2 nM.

Regarding `CC(C)(C)c1cc(C(=O)N=C2NCCN2)ccc1Nc1cccc(C(=O)NCCC2CCCOC2)c1` (centres unmarked) [Compound 33, 3-tert-butyl-N-[(2E)-imidazolidin-2-ylidene]-4-[(3-{[2-(oxan-3-yl)ethyl]carbamoyl}phenyl)amino]benzamide], the EC50 worked out at 50.2 nM. On to `CC(C)NC(=S)c1cccc(Nc2ccc(C(=O)N=C3NCCN3)cc2C2CC2)c1` [Compound 34, 3-cyclopropyl-N-[(2Z)-imidazolidin-2-ylidene]-4-({3-[(propan-2-yl)carbamothioyl]phenyl}amino)benzamide], for which the EC50 was 50.4 nM. For the compound `CC(C)(C)c1cc(C(=O)N=C2NCCN2)ccc1Nc1cccc(C(=O)NCCC2CCCCO2)c1` (centres unmarked) [Compound 35, 3-tert-butyl-N-[(2E)-imidazolidin-2-ylidene]-4-[(3-{[2-(oxan-2-yl)ethyl]carbamoyl}phenyl)amino]benzamide], the EC50 was found to be 51.6 nM. On to `CC(C)NC(=O)c1cccc(Nc2ccc(C(=O)/N=C3\NCCN3C)cc2C2CC2)c1` [Compound 36, 3-cyclopropyl-N-[(2E)-1-methylimidazolidin-2-ylidene]-4-({3-[(propan-2-yl)carbamoyl]phenyl}amino)benzamide], for which the concentration giving a half-maximal response (EC50) was 55.4 nM. The same measure for `CC(C)C(=O)Nc1cccc(Nc2ccc(C(=O)N=C3NCCN3)cc2C(C)(C)C)c1` [Compound 37, 3-tert-butyl-N-[(2E)-imidazolidin-2-ylidene]-4-{[3-(2-methylpropanamido)phenyl]amino}benzamide]: 55.5 nM. Take `CC(C)N(C)C(=O)c1cccc(Nc2ccc(C(=O)N=C3NCCN3)cc2C(C)(C)C)c1` [Compound 38, 3-tert-butyl-N-[(2E)-imidazolidin-2-ylidene]-4-({3-[methyl(propan-2-yl)carbamoyl]phenyl}amino)benzamide]: the EC50 came to 63.7 nM. With `CC(C)(C)c1cc(C(=O)N=C2NCCN2)ccc1Nc1cccc(C(=O)NCCC2CCOCC2)c1` [Compound 39, 3-tert-butyl-N-[(2E)-imidazolidin-2-ylidene]-4-[(3-{[2-(oxan-4-yl)ethyl]carbamoyl}phenyl)amino]benzamide], the EC50 came out at 66.2 nM. The same measure for `Cc1c(C(=O)NCCC(C)C)ccnc1Nc1ccc(C(=O)N=C2NCCN2)cc1C1CC1` [Compound 40, 2-[(2-cyclopropyl-4-{[(2E)-imidazolidin-2-ylidene]carbamoyl}phenyl)amino]-3-methyl-N-(3-methylbutyl)pyridine-4-carboxamide]: 69.2 nM; for `O=C1CN/C(=N\C(=O)c2ccc(Nc3cccc(OCCCC4CCCCC4)c3)c(C3CC3)c2)N1` [Compound 41, 4-{[3-(3-cyclohexylpropoxy)phenyl]amino}-3-cyclopropyl-N-[(2E)-4-oxoimidazolidin-2-ylidene]benzamide]: 77.2 nM.
